In patent US9593305B2, “Differentiation of pluripotent stem cells” (Janssen Biotech, Inc., priority 2008, dated 2017):

How the values were obtained:
[1] = tested on: H1 human embryonic stem cells; assay: Definitive endoderm formation with GDF family members, SOX17 and cell number (Example 13); format: cell-based; settings: for SOX17 expression, reagent alone: 20 ng/ml Wnt3a or 2.5 μM compound alone, four days; for SOX17 induction in combination with GDF-8: 2.5 μM compound with 100 ng/ml GDF-8, exceeding activin A/Wnt3a positive control
Experimental: Stock cultures of human embryonic stem cells (H1 human embryonic stem cell line) were maintained in an undifferentiated, pluripotent state on reduced growth factor […]™ (BD Biosciences; Cat #356231)-coated dishes in MEF conditioned medium with passage on average every four days. Passage was performed by exposing cell cultures to a solution of 1 mg/ml dispase (Invitrogen; Cat #17105-041) for 5 to 7 minutes at 37° C. followed by rinsing the monolayer with MEF conditioned culture medium and gentle scraping to recover cell clusters. Clusters were centrifuged at low speed to collect a cell pellet and remove residual dispase. Cell clusters were split at a 1:3 or 1:4 ratio for routine maintenance culture or a 1:1 ratio for immediate assay. All human ES cell lines were maintained at passage numbers less than 50 and routinely evaluated for normal karyotype and absence of mycoplasma.
Cell clusters were evenly resuspended in MEF conditioned medium supplemented with 8 ng/ml bFGF and seeded onto reduced growth factor […]™-coated 96-well Packard VIEWPLATES (PerkinElmer; Cat #6005182) in volumes of 0.1 ml/well. Daily feeding was conducted by aspirating spent culture medium from each well and replacing with an equal volume of fresh medium. Plates were maintained at 37° C., 5% CO2 throughout the duration of assay.
The assay was initiated by aspirating the culture medium from each well and adding back aliquots (100 μl) of test medium. Test conditions were performed in triplicate over a total four-day assay period, feeding on day 1 and day 3 by aspirating and replacing the medium from each well with fresh test medium. Various members of the GDF family of proteins were obtained for testing as follows: GDF-3 (PeproTech; Cat #120-22); GDF-5 (DePuy Orthopaedics, Inc., a Johnson & Johnson company); GDF-8 (R&D Systems; Cat #788-G8); GDF-10 (R&D Systems; Cat #1543-BP); GDF11 (PeproTech; Cat #120-11); GDF-15 (R&D Systems; Cat #957-GD). On the first day of assay, all wells received an aliquot (80 μl) of basal medium DMEM:F12 medium (Invitrogen; Cat #11330-032) supplemented with 0.5% fetal bovine serum (Hyclone; Cat #SH30070.03). A series of five different control or experimental test samples was created to evaluate activin A or various GDFs in combination with Wnt3a or Compound 34 or Compound 56. These test samples were added in 20 μl aliquots (5× concentrated) to appropriately matched assay wells to yield a final assay volume of 100 μl in each well at the final assay conditions indicated. In the first set of control samples, the following conditions were tested: 1) no additive (i.e. no supplementary growth factor or small molecule); 2) 100 ng/ml activin A (PeproTech; Cat #120-14) in combination with 20 ng/ml Wnt3a (R&D Systems; Cat #1324-WN/CF); 3) 20 ng/ml Wnt3a alone; 4) Compound 34 alone (2.5 μM) without any growth factor or small molecule; 5) Compound 56 alone (2.5 μM) without any growth factor or small molecule. In the second set of test samples, the following conditions were tested in combination with 100 ng/ml GDF3: 1) no additive (i.e. GDF-3 alone); 2) 20 ng/ml Wnt3a; 3) 20 ng/ml Wnt3a with Compound 34 (2.5 μM); 4) Compound 34 (2.5 μM); 5) Compound 56 (2.5 μM); and 6) 20 ng/ml Wnt3a with Compound 56 (2.5 μM). In the third set of test samples, each of the six conditions was combined with 100 ng/ml GDF-5. In the fourth set of test samples, each of the six conditions was combined with 100 ng/ml GDF-8. In the fifth set of test samples, each of the six conditions was combined with 100 ng/ml GDF-10. In the sixth set of test samples, each of the six conditions was combined with 100 ng/ml GDF-11. In the seventh set of test samples, each of the six conditions was combined with 100 ng/ml GDF-15. On the third day of assay, all wells for all test samples, received 100 ng/ml Activin A or 100 ng/ml respective GDF growth factor, without Wnt3a or Compound 34 or Compound 56, diluted into DMEM:F12 medium supplemented with 2% FBS. […]

[2] = tested on: H1 human embryonic stem cells; assay: Definitive endoderm formation with TGF superfamily members, SOX17 and cell number (Example 14); format: cell-based; settings: growth factor with 20 ng/ml Wnt3a, three days
Experimental: Clusters were centrifuged at low speed to collect a cell pellet and remove residual dispase. […] All human embryonic stem cell lines were maintained at passage numbers less than 50 and routinely evaluated for normal karyotype and absence of mycoplasma.
Cells were washed again three times with PBS and blocked with 4% chicken serum (Invitrogen; Cat #16110082) in PBS for 30 minutes at room temperature. […] Plates were washed once with PBS and left in 100 μl/well PBS for imaging.

| Compound | SOX17 expression, reagent alone [1] | SOX17 induction in combination with GDF-8 [1] | SOX17 expression in combination with Wnt3a [2] |
| --- | --- | --- | --- |
| O=C1CCN2CCN(CC2)Cc2cc(Cl)cc(c2)Nc2ncnc(n2)-c2cncc(c2)CCCN1 [Compound 34, 5-Chloro-1,8,10,12,16,22,26,32-octaazapentacyclo[24.2.2.1˜3.7˜0.1˜9,13˜0.1˜14.18˜]tritriaconta-3(33), 4,6,9(32), 10,12,14(31), 15,17-nonaen-23-one] | failed to induce SOX17 expression | robust induction of SOX17 |  |
| Cc1c[nH]c(-c2cnc(NCCNc3ccc(C#N)cn3)nc2-c2ccc(Cl)cc2Cl)n1 [Compound 56, 6-[(2-{[4-(2,4-Dichlorophenyl)-5-(4-methyl-1H-imidazol-2-yl)pyrimidin-2-yl]amino}ethyl)amino]pyridine-3-carbonitrile] | failed to induce SOX17 expression | robust induction of SOX17 |  |
| Activin A: recombinant human activin A (PeproTech), TGF-beta family member |  |  | robust expression of SOX17 |
| GDF-8: growth factor GDF-8, also known as myostatin, member of the TGF-β family |  |  | significant induction of SOX17 expression |
